Consider 18 molecules from the Deep4Chem optical property database.

This data set in a line: solvent given as SMILES.

Turning to `O=C([O-])c1ccc(C(=O)[O-])c(C2=c3cc4c5c(c3Oc3c2cc2c6c3CCCN6CCC2)CCC[N+]=5CCC4)c1`, the fluorescence lifetime worked out at 5.21 ns (in CCO) and 4.79 ns (in O).

`F[B-]1(F)n2c(cc3c4ccccc4c4ccccc4c32)-c2ccc3ccccc3[n+]21` came in with a fluorescence lifetime (in ClCCl) of 4.89 ns.

For the molecule `CC1=[N+]2C(=C(c3ccc(C=O)cc3)c3ccc(C)n3[B-]2(F)F)C=C1c1cc2n(c1)[B-](F)(F)[N+]1=CC=CC1=C2c1c(C)cc(C)cc1C`, the fluorescence lifetime came to 2.7 ns (in C1CCCCC1) and 0.9 ns (in CCOC(C)=O).

`c1ccc(N(c2ccccc2)c2c3ccccc3c(N(c3ccccc3)c3ccccc3)c3ccccc23)cc1` came in with a fluorescence lifetime (in Cc1ccccc1) of 13 ns.

Turning to `COc1ccc2c(c1)c1cc(OC)ccc1n2-c1cccc(-n2c3ccc(OC)cc3c3cc(OC)ccc32)c1C#N`, the fluorescence lifetime by setting is: (in Cc1ccccc1) 13 ns; (in O=P(c1ccccc1)(c1ccccc1)c1ccccc1Oc1ccccc1P(=O)(c1ccccc1)c1ccccc1) 12.8 ns.

In turn, `CC1=C(c2ccc(N(c3ccccc3)c3ccccc3)cc2)C(C)=[N+]2C1=C(c1c(-c3ccccn3)nc3ccccn13)c1c(C)c(-c3ccc(N(c4ccccc4)c4ccccc4)cc3)c(C)n1[B-]2(F)F` returned a fluorescence lifetime (in ClCCl) of 0.3 ns.

In turn, `N#Cc1ccc2cc[nH]c2c1` displayed a fluorescence lifetime (in C1CCOC1) of 3.7 ns; a fluorescence lifetime (in C1COCCO1) of 3.9 ns; a fluorescence lifetime (in CC#N) of 3.8 ns; a fluorescence lifetime (in CC(C)O) of 3.7 ns; a fluorescence lifetime (in CCO) of 3.7 ns; a fluorescence lifetime (in CO) of 3.5 ns. Besides, the fluorescence lifetime by setting is: (in CS(C)=O) 4.3 ns; (in NC=O) 4.2 ns; (in O) 0.6 ns; (in OCC(F)(F)F) 0.8 ns; (in [2H]OC([2H])([2H])C(F)(F)F) 1.1 ns; (in [2H]O[2H]) 0.8 ns.

Regarding `O=P1(c2ccccc2)C(c2ccc(N(c3ccccc3)c3ccccc3)cc2)=Cc2cc3ccccc3cc21` (stereo not given), the fluorescence lifetime (in ClCCl) was 4.7 ns.

As to `C[Si](C)(C)c1ccc2ccc3c([Si](C)(C)C)ccc4ccc1c2c43`, the fluorescence lifetime was 53.7 ns (in CCCCCC), 71.8 ns (in CO) and 65.5 ns (in ClCCl).

Regarding `COc1cc(/C=C2/SC(=O)NC2=O)ccc1O`, the fluorescence lifetime stood at 0.61 ns (in C1CCCCC1); 1.3 ns (in C1COCCO1); 0.291 ns (in CC#N); 4.11 ns (in CN(C)C=O); 0.25 ns (in CO); 0.281 ns (in O). Moreover, the fluorescence lifetime came to 5.79 ns (in OCC(O)CO) and 2.52 ns (in OCCO).

Regarding `O=c1c2cc(S(=O)(=O)Cl)ccc2[nH]c2ccc(S(=O)(=O)Cl)cc12`, for the setting “in CS(C)=O”, the fluorescence lifetime was 10.8 ns.

As for `CCN(CC)c1cccc(C=O)c1`, the fluorescence lifetime by setting is: (in CC#N) 11.7 ns; (in CC(C)O) 1.47 ns; (in CCCCCC) 5.95 ns; (in CCOC(C)=O) 14.3 ns; (in CS(C)=O) 21.9 ns; (in Cc1ccccc1) 16.2 ns. This molecule also came in with a fluorescence lifetime (in ClCCl) of 26.6 ns.

Take `CCN1CCCc2cc3c(cc21)Oc1cc2c(cc1=N3)C(CS(=O)(=O)[O-])CC(C)(C)[N+]=2CCCC(=O)[O-]` (stereo not given): for the setting “in O”, the fluorescence lifetime stood at 3.6 ns.

`Fc1c(-n2c3ccccc3c3ccccc32)c(-c2nnc(-c3ccccc3)o2)c(-n2c3ccccc3c3ccccc32)c(-n2c3ccccc3c3ccccc32)c1-n1c2ccccc2c2ccccc21` came in with a fluorescence lifetime (in Cc1ccccc1) of 3.2 ns.

Regarding `C[N+]1=c2cc3c(cc2C(C)(C)CC1)=C(c1ccccc1C(=O)O)c1cc2c(cc1O3)Oc1cc3c(cc1=C2c1ccccc1C(=O)O)C(C)(C)CC[N+]=3C`, the fluorescence lifetime (in ClC(Cl)Cl) stood at 2.34 ns.

Consider `O=C1c2ccccc2-c2cnccc21`, for which the fluorescence lifetime runs as follows: (in CC#N) 6.7 ns; (in CCOC(C)=O) 2.4 ns; (in Cc1ccccc1) 2.2 ns; (in ClCCl) 6.1 ns.

In the case of `O=c1oc2ccccc2cc1-c1cccc(-c2cc3ccccc3oc2=O)c1`, under “in ClC(Cl)Cl”, the fluorescence lifetime amounted to 0.4 ns.

The molecule `CCN(CC)c1ccc2cc(C#N)c(=N)oc2c1` registered a fluorescence lifetime (in ClCCl) of 2.9 ns.
